Measurements as given in US20210283163A1, “COMPOSITIONS AND METHODS FOR THE TREATMENT OF ACUTE AND CHRONIC PRURITIS” (Duke University, priority 2018, published 2021).

Tests used:
Format in all cases: cell-based
human DRG neurons = experiment: Whole-cell patch clamp, inward currents in human DRG neurons; details: A967079 10 μM
Procedure: Non-diseased human DRGs were obtained from donors through National Disease Research Interchange (NDRI) with permission of exemption from the Duke University Institutional Review Board (IRB). Postmortem L3-L5 DRGs were dissected from 4 donors and delivered in ice cold culture medium to the laboratory at Duke University within 24-72 hr of the donor's death. Upon the delivery, DRGs were rapidly dissected from nerve roots and minced in a calcium-free HBSS (GIBCO). Human DRG cultures were prepared as previously reported (Chang et al., Neurosci. Bull. 2018, 34, 4-12; Han et al., Neuron 2016, 92, 1279-1293). DRGs were digested at 37° C. in a humidified CO2 incubator for 120 min with collagenase Type II (Worthington, 290 units/mg, 12 mg/mL final concentration) and dispase II (Roche, 1 unit/mg, 20 mg/mL) in PBS with 10 mM HEPES, pH adjusted to 7.4 with NaOH. DRGs were mechanically dissociated using fire-polished pipettes, filtered through a 100 μm nylon mesh and centrifuged (500 g for 5 min). The pellet was resuspended, plated on 0.5 mg/mL poly-D-lysine-coated glass coverslips, and grown in Neurobasal medium supplemented with 10% FBS, 2% B-27 supplement, and 1% penicillin/streptomycin. Whole-cell patch-clamp recordings in small (<[…]) human DRG neurons were conducted at room temperature using patch pipettes with resistances of 3-4 MΩ.
Whole-Cell Patch Clamp Recordings in HEK293 Cells, CHO Cells, and DRG Neurons. Whole-cell patch clamp recordings were performed at room temperature using an Axopatch-200B amplifier (Axon Instruments) with a Digidata 1440B (Axon Instruments). In this study, we only examined small-diameter mouse DRG neurons (<25 μM) and small-diameter human DRG neurons (<55 μM). The patch pipettes were pulled from borosilicate capillaries (World Precision Instruments) using a P-97 Flaming/Brown micropipette puller (Sutter Instrument). Pipette resistance was 4-6 MΩ for whole-cell and outside-out recording. […]

mTRPA1 mutants (M1-M13) [1] = molecular target: T1, mTRPA1 mutants (M1-M13) (Mus musculus, UniProt Q8BLA8, L939A/P937A/Y936A); experiment: Whole-cell patch clamp in CHO cells transfected with mutant mTrpa1 cDNAs (M1-M13); details: M13, triple mutations (Y936, P937, and L939)
T1 construct: HA; expressed in transfected cells; host or cells: CHO cells (ATCC CRL-9096), transient transfection
T1 sequence (Q8BLA8 whole entry Y936A/P937A/L939A): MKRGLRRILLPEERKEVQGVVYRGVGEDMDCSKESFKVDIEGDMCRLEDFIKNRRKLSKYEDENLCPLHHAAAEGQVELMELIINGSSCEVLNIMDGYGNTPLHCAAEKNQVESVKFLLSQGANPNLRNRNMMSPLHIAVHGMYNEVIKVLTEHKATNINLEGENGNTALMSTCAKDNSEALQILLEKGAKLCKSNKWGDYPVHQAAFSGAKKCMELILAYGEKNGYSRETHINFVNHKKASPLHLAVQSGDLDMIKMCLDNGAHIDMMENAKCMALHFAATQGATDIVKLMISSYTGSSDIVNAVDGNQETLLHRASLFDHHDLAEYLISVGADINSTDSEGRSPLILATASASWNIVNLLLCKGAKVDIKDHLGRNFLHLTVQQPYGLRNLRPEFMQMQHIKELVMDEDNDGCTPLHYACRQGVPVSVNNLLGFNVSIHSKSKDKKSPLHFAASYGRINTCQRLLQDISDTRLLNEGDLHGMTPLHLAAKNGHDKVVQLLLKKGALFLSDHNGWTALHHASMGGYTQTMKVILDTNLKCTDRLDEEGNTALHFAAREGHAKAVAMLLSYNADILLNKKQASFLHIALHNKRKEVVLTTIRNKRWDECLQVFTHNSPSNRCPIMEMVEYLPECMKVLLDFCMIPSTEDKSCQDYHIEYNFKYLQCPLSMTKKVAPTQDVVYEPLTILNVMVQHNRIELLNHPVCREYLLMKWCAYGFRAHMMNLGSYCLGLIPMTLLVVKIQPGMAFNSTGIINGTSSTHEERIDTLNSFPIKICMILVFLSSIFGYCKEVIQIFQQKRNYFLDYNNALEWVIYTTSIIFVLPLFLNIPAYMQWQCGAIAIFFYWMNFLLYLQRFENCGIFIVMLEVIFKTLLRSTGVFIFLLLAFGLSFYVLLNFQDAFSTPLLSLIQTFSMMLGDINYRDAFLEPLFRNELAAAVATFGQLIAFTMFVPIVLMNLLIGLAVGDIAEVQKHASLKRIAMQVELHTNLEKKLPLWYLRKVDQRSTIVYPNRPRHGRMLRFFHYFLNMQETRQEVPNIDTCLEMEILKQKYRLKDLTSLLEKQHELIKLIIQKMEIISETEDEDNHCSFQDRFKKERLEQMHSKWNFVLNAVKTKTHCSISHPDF
Procedure: (§1) Constructs. The cDNAs of mouse pcDNA3.1-Trpa1, pcDNA3.1-Trpv1, pcDNA3.1-Trpv2, pcDNA3.1-Trpv3, and pcDNA3.1-Trpv4 were kindly provided Dr. Sun Work Hwang from Korea University. Mouse Trpa1 cDNA was subcloned into pCGN-HA backbone (Addgene) using In-Fusion HD Cloning Kit (Clontech Laboratories, CA). Q5 Site-Directed Mutagenesis Kit was used to generate mTrpa1 mutant (M1-M13) based on pCGN-mTrpa1.
(§2) Cell Culture and Transfection. CD4^+ Myla cell line was cultured in RPMI 1640 media (GIBCO), supplemented with 2 mM Glutamine (GIBCO), 100 U/mL IL-2 (Sigma), 100 U/mL IL-4 (Sigma), and 10% human AB serum (Sigma). HuT 102 cell line was cultured in RPMI 1640 supplemented with pyruvate, HEPES, and 10% (v/v) fetal bovine serum (HyClone). HEK293-hTRPA1 stable cell line was cultured in MEM (GIBCO) containing 2 mM Glutamine, 4 μg/mL Blasticidin, 10% FBS (v/v). B16 and CHO cells were cultured in high glucose (4.5 g/L) Dulbecco's Modified Eagle's Medium (GIBCO) containing 10% (v/v) fetal bovine serum (GIBCO). Culture media were supplemented with 50 units/mL of penicillin and 50 μg/mL streptomycin, and cultures were maintained with 5% CO2 in 37° C. incubator. Transfection (2 μg cDNA) was performed with Lipofectamine™ 2000 Reagent (Invitrogen) at 80% confluency and the transfected cells were cultured in the same media for 48 hr before electrophysiological and biochemical studies.
(§3) Whole-Cell Patch Clamp Recordings in HEK293 Cells, CHO Cells, and DRG Neurons. Whole-cell patch clamp recordings were performed at room temperature using an Axopatch-200B amplifier (Axon Instruments) with a Digidata 1440B (Axon Instruments). In this study, we only examined small-diameter mouse DRG neurons (<25 μM) and small-diameter human DRG neurons (<55 μM). The patch pipettes were pulled from borosilicate capillaries (World Precision Instruments) using a P-97 Flaming/Brown micropipette puller (Sutter Instrument). Pipette resistance was 4-6 MΩ for whole-cell and outside-out recording. For inward current recordings in mouse and human DRG neurons, HEK293 cells, and CHO cells, the internal solution contains (in mM): 140 CsCl, 10 EGTA, 10 HEPES, and 2 Mg-ATP, adjusted to pH 7.3 with CsOH. Whole cell recordings were performed in an extracellular solution that contains (in mM): 140 NaCl, 5 KCl, 2 MgCl2, 10 HEPES, and 10 glucose, adjusted to pH 7.4 with NaOH and osmolarity to 300-310 mOsm. […] Action potential recordings were performed in small-diameter DRG neurons, with the following solutions: i) internal pipette solution contains: 126 mM K-gluconate, 10 mM NaCl, 1 mM MgCl2, 10 mM EGTA, 10 mM HEPES and 2 mM Na-ATP, adjusted to pH 7.4 with KOH and osmolarity to 295-300 mOsm), and ii) extracellular solution contains: 140 mM NaCl, 5 mM KCl, 2 mM MgCl2, 2 mM CaCl2, 10 mM HEPES, 10 mM glucose, adjusted to pH 7.4 with KOH.

mTRPA1 mutants (M1-M13) [2] = molecular target: T2, mTRPA1 mutants (M1-M13) (Mus musculus, UniProt Q8BLA8, P937A); experiment: as above; details: M11, single residue mutation of mP937
T2 construct: HA; expressed in transfected cells; host or cells: CHO cells (ATCC CRL-9096), transient transfection
T2 sequence (Q8BLA8 whole entry P937A): as the sequence (Q8BLA8 whole entry Y936A/P937A/L939A) above, with A936Y, A939L counted along it
Procedure: as §1, §2, §3

Row | Compound | block of miRNA-evoked inward currents in human DRG neurons (human DRG neurons) | current in mutant (mTRPA1 mutants (M1-M13) [1]) | evoked currents in mutant (mTRPA1 mutants (M1-M13) [2])
1 | CCC(=N\O)/C(C)=C/c1ccc(F)cc1 [A967079, (1E,3E)-1-(4-Fluorophenyl)-2-methyl-1-pentene-3-one oxime] | blocked | – | –
2 | miR-711: mmu-miR-711: gggacccggggagagauguaag (SEQ ID NO: 5) (GGGACCCGGGGAGAGAUGUAAG; chemistry not given here) | – | further reduction | markedly reduced
